The values below come from US5023266A, “Method of treatment of psychotic disorders” (Synthelabo, priority 1989, dated 1991).

This experiment deals with σ-receptor. In words: Inhibition of [3H]-(+)-3-PPP binding to the σ-receptor in rat cerebral cortex membranes. To be noted: 2nM [3H]-(+)-3-PPP, 90 min at 25° C., non-specific binding defined with 1μM haloperidol, read-out: IC50, concentration which inhibits 50 percent of the [3H]-(+)-3-PPP binding. As for the experimental part: In particular their inhibitory activity on the binding of [^3 H](+)3(3-hydroxyphenyl)-N-(1-propyl)-piperidine, or [^3 H]-(+)-3-PPP, to the σ-receptor in the cerebral cortex of rats has been studied, essentially as described in J. Pharmacol. Exp. Ther., 238, 739-748, (1986). Male Sprague-Dawley rats (150-200 g) were sacrificed, and the cerebral cortex was homogenized in 25 volumes of ice-cold Tris-HCl buffer (pH 7.4 at 25° C.) with the use of an Ultra-Turrax™ polytron. The homogenate was washed twice by centrifugation (10 min at 45,000g) and intermittent resuspension of the resulting pellet in fresh buffer. The final pellet was resuspended in 20 volumes of 50mM Tris-HCl buffer (pH 8.0 at 22° C.). A 75 μl aliquot of this membrane preparation was then incubated in a final volume of 250 μl with 2nM [^3 H]-(+)-3-PPP (specific activity 90 Ci/mmol; New England Nuclear) for 90 min at 25° C., in the absence or in the presence of competing drugs. After incubation, the membranes were recovered by filtration over 0.05% polyethyleneimine-pretreated Whatman™ GF/B filters using a Skatron™ Cell Harvester, and washed with ±2.5 ml of ice-cold 50mM Tris-HCl buffer (pH 7.7 at 0° C.). Non-specific binding was defined with 1μM haloperidol.
Data were analyzed by conventional graphical techniques and least-squares regression analysis where appropriate.
The following Table indicates the IC50 of the compounds, i.e. the concentration (μM) which inhibits 50 percent of the [^3 H]-(+)-3-PPP.

pIC50: −log10 of the molar value.

Regarding `C[C@H]([C@H](O)c1ccc(O)cc1)N1CCC(Cc2ccccc2)CC1` (relative stereo) [Compound 2], the pIC50 is 8.00.
For the compound `OC(CN1CCC(Cc2ccc(F)cc2)CC1)c1ccc(Cl)cc1` (single isomer, unassigned) [Compound 7], the pIC50 was 8.01.
For `OC(CN1CCC(Cc2ccc(F)cc2)CC1)c1ccc(Cl)cc1` (single isomer, unassigned) [Compound 6] the value was 8.04; for `OC(CN1CCC(Cc2ccc(F)cc2)CC1)c1ccc(Cl)cc1` (racemic) [Compound 5], 8.52; for `C[C@@H]([C@H](O)c1ccc(O)cc1)N1CCC(Cc2ccccc2)CC1` (relative stereo) [Compound 1], 8.10.
For `C[C@@H]([C@H](O)c1ccc(O)cc1)N1CCC(Cc2ccccc2)CC1` (single isomer, unassigned) [Compound 3], the pIC50 was 7.82.
The result for `C[C@@H]([C@H](O)c1ccc(O)cc1)N1CCC(Cc2ccccc2)CC1` (single isomer, unassigned) [Compound 4] reads 8.15.
